What was measured:
rodent = conditions: in vivo; cited from earlier work
[1] = tested on: mRNA expressed from the genes (A) to (D) in rat liver; test: Behavior of genes (mRNA expression level, oligo-DNA microarray) in rat liver after 28-day oral administration; format: in vivo; conditions: rat, in vivo
Procedure, shortened: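 Male F344 SPF rats, 5 weeks old, four per group, dosed by oral gavage once daily for 28 days with test chemical or matched-volume solvent. Liver total RNA profiled on oligo-DNA microarray. Change ≥1.5-fold or ≤1/1.5 versus vehicle counted as significant if its direction matched that seen with other carcinogens.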

liver = conditions: in vivo; cited from earlier work

O=C1N=C([O-])NC1(c1ccccc1)c1ccccc1.[Na+] [TS069, Phenytoin Na]
C+: Carcinogenicity (rodent)
−: Behavior of gene caused by administration of chemical substance, Gene No. 533 [1] | Behavior of gene caused by administration of chemical substance, Gene No. 813 [1] | Behavior of gene caused by administration of chemical substance, Gene No. 893 [1] | Behavior of gene caused by administration of chemical substance, Gene No. 1119 [1] | Behavior of gene caused by administration of chemical substance, Gene No. 1131 [1] | Behavior of gene caused by administration of chemical substance, Gene No. 1163 [1] | Behavior of gene caused by administration of chemical substance, Gene No. 1334 [1] | Behavior of gene caused by administration of chemical substance, Gene No. 1562 [1] | Behavior of gene caused by administration of chemical substance, Gene No. 1993 [1] | Behavior of gene caused by administration of chemical substance, Gene No. 2026 [1] | Behavior of gene caused by administration of chemical substance, Gene No. 2494 [1] | Behavior of gene caused by administration of chemical substance, Gene No. 2546 [1] | Behavior of gene caused by administration of chemical substance, Gene No. 3776 [1] | Behavior of gene caused by administration of chemical substance, Gene No. 4218 [1] | Behavior of gene caused by administration of chemical substance, Gene No. 4846 [1] | Behavior of gene caused by administration of chemical substance, Gene No. 5600 [1] | Behavior of gene caused by administration of chemical substance, Gene No. 5726 [1] | Behavior of gene caused by administration of chemical substance, Gene No. 5878 [1] | Behavior of gene caused by administration of chemical substance, Gene No. 6026 [1] | Behavior of gene caused by administration of chemical substance, Gene No. 6303 [1] | Behavior of gene caused by administration of chemical substance, Gene No. 6620 [1] | Behavior of gene caused by administration of chemical substance, Gene No. 6742 [1]
Cr−: Liver carcinogenicity (liver)
+: Behavior of gene caused by administration of chemical substance, Gene No. 154 [1] | Behavior of gene caused by administration of chemical substance, Gene No. 725 [1] | Behavior of gene caused by administration of chemical substance, Gene No. 1494 [1] | Behavior of gene caused by administration of chemical substance, Gene No. 1741 [1] | Behavior of gene caused by administration of chemical substance, Gene No. 2045 [1] | Behavior of gene caused by administration of chemical substance, Gene No. 2203 [1] | Behavior of gene caused by administration of chemical substance, Gene No. 3929 [1] | Behavior of gene caused by administration of chemical substance, Gene No. 4095 [1] | Behavior of gene caused by administration of chemical substance, Gene No. 4973 [1] | Behavior of gene caused by administration of chemical substance, Gene No. 5634 [1] | Behavior of gene caused by administration of chemical substance, Gene No. 6182 [1]

CC(=O)Nc1ccc(C(=O)CCl)cc1 [TS072, 4-(Chloroacetyl)acetanilide]
+: Behavior of gene caused by administration of chemical substance, Gene No. 533 [1] | Behavior of gene caused by administration of chemical substance, Gene No. 725 [1] | Behavior of gene caused by administration of chemical substance, Gene No. 1163 [1] | Behavior of gene caused by administration of chemical substance, Gene No. 1494 [1] | Behavior of gene caused by administration of chemical substance, Gene No. 2026 [1] | Behavior of gene caused by administration of chemical substance, Gene No. 2045 [1] | Behavior of gene caused by administration of chemical substance, Gene No. 2203 [1] | Behavior of gene caused by administration of chemical substance, Gene No. 3776 [1] | Behavior of gene caused by administration of chemical substance, Gene No. 4218 [1] | Behavior of gene caused by administration of chemical substance, Gene No. 4846 [1] | Behavior of gene caused by administration of chemical substance, Gene No. 4973 [1] | Behavior of gene caused by administration of chemical substance, Gene No. 5600 [1] | Behavior of gene caused by administration of chemical substance, Gene No. 6182 [1]
C−: Carcinogenicity (rodent)
−: Behavior of gene caused by administration of chemical substance, Gene No. 154 [1] | Behavior of gene caused by administration of chemical substance, Gene No. 813 [1] | Behavior of gene caused by administration of chemical substance, Gene No. 893 [1] | Behavior of gene caused by administration of chemical substance, Gene No. 1119 [1] | Behavior of gene caused by administration of chemical substance, Gene No. 1131 [1] | Behavior of gene caused by administration of chemical substance, Gene No. 1334 [1] | Behavior of gene caused by administration of chemical substance, Gene No. 1562 [1] | Behavior of gene caused by administration of chemical substance, Gene No. 1741 [1] | Behavior of gene caused by administration of chemical substance, Gene No. 1993 [1] | Behavior of gene caused by administration of chemical substance, Gene No. 2494 [1] | Behavior of gene caused by administration of chemical substance, Gene No. 2546 [1] | Behavior of gene caused by administration of chemical substance, Gene No. 3929 [1] | Behavior of gene caused by administration of chemical substance, Gene No. 4095 [1] | Behavior of gene caused by administration of chemical substance, Gene No. 5634 [1] | Behavior of gene caused by administration of chemical substance, Gene No. 5726 [1] | Behavior of gene caused by administration of chemical substance, Gene No. 5878 [1] | Behavior of gene caused by administration of chemical substance, Gene No. 6026 [1] | Behavior of gene caused by administration of chemical substance, Gene No. 6303 [1] | Behavior of gene caused by administration of chemical substance, Gene No. 6620 [1] | Behavior of gene caused by administration of chemical substance, Gene No. 6742 [1]
Cr−: Liver carcinogenicity (liver)

From patent publication US20110039721A1, “METHOD FOR PREDICTION ABOUT CARCINOGENICITY OF SUBSTANCE IN RODENT” (Chemicals Evaluation and Research Institute, priority 2007, published 2011)
